Measurements as given in ChEMBL document CHEMBL4011597, “Synthesis, screening and docking of fused pyrano[3,2-d]pyrimidine derivatives as xanthine oxidase inhibitor” (Eur J Med Chem, 2017).

Legend:
[1] = target: T1, Xanthine dehydrogenase/oxidase (Bos taurus, UniProt P80457); test: Inhibition of bovine xanthine oxidase assessed as reduction in uric acid formation at 100 uM using xanthine as substrate pretreated for 5 mins followed by substrate addition measured by UV-vis spectrophotometric method relative to control; conditions: cattle
T1 sequence (P80457 whole entry): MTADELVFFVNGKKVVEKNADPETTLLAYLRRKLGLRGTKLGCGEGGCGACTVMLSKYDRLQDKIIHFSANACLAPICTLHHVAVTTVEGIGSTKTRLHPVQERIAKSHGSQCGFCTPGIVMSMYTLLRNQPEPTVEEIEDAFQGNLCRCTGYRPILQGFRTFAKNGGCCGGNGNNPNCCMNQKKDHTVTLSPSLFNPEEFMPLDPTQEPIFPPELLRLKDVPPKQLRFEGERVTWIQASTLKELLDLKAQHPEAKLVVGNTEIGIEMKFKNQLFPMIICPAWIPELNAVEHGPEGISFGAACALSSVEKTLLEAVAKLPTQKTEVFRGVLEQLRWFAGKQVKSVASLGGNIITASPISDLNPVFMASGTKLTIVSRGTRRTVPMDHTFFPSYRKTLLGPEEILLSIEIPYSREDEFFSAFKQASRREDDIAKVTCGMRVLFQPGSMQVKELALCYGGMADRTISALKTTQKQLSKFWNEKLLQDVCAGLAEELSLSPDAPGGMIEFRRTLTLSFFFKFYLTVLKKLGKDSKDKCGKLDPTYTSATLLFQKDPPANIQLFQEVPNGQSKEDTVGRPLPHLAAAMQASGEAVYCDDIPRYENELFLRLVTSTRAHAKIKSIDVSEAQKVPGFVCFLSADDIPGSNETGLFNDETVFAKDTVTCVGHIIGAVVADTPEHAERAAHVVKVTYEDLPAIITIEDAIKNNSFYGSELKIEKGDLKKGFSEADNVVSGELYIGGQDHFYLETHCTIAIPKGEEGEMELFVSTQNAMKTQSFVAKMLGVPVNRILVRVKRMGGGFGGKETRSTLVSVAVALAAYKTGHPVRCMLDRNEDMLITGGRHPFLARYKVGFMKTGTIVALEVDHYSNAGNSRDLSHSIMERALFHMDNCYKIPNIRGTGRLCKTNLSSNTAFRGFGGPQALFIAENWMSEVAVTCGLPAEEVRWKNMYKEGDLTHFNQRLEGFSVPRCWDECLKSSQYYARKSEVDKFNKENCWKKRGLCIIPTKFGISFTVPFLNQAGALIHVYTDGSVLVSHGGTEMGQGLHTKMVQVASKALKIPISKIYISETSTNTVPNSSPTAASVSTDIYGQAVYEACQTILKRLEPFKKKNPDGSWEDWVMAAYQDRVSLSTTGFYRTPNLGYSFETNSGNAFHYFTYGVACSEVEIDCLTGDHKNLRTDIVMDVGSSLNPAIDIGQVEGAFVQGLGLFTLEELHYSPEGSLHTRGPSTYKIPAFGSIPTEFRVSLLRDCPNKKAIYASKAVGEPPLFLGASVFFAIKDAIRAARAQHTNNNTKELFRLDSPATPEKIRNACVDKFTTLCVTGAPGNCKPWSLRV

[2] = target: T1, Xanthine dehydrogenase/oxidase; test: Inhibition of bovine xanthine oxidase assessed as reduction in uric acid formation using xanthine as substrate pretreated for 5 mins followed by substrate addition measured by UV-vis spectrophotometric method
[3] = target: T1, Xanthine dehydrogenase/oxidase; test: Inhibition of bovine xanthine oxidase assessed as reduction in uric acid formation at 10 uM using xanthine as substrate pretreated for 5 mins followed by substrate addition measured by UV-vis spectrophotometric method relative to control; conditions: cattle
[4] = target: T1, Xanthine dehydrogenase/oxidase; test: Inhibition of bovine xanthine oxidase assessed as reduction in uric acid formation at 1 uM using xanthine as substrate pretreated for 5 mins followed by substrate addition measured by UV-vis spectrophotometric method relative to control; conditions: cattle

| SMILES | inhibition at 100 µM [1] [%] | IC50 [2] [µM] | inhibition at 10 µM [3] [%] | inhibition at 1 µM [4] [%] |
| --- | --- | --- | --- | --- |
| COc1ccc(Nc2ncnc3c2C(c2cccc(Cl)c2)c2c(n[nH]c2C)O3)cc1 (stereo not drawn) | 33.1 | – | – | – |
| COc1ccc(Nc2ncnc3c2C(c2ccc(Cl)cc2)C2=C(CCCC2=O)O3)cc1 (stereo not drawn) | 69.4 | 55 | 34.5 | 22 |
| COc1ccc(Nc2ncnc3c2C(c2ccccc2OC)c2c(c(=O)oc4ccccc24)O3)cc1 (stereo not drawn) | 83.6 | 29 | 41.1 | 30.2 |
| COc1ccc(Nc2ncnc3c2C(c2ccc(O)c(O)c2)c2ccc4ccccc4c2O3)cc1 (stereo not drawn) | 36.5 | – | – | – |
| COc1ccc(Nc2ncnc3c2C(c2ccncc2)c2c(n[nH]c2C)O3)cc1 (stereo not drawn) | 15.1 | – | – | – |
| COc1ccc(Nc2ncnc3c2C(c2ccc(F)cc2)C2=C(CCCC2=O)O3)cc1 (stereo not drawn) | 71.1 | 50 | 35.5 | 27.1 |
| COc1ccc(Nc2ncnc3c2C(c2cc(OC)c(OC)c(OC)c2)c2c(n[nH]c2C)O3)cc1 (stereo not drawn) | 47.9 | – | – | – |
| COc1ccc(Nc2ncnc3c2C(c2ccc(OC)c(OC)c2)c2c(n[nH]c2C)O3)cc1 (stereo not drawn) | 63.7 | 64 | 31.4 | 23.6 |
| COc1ccc(Nc2ncnc3c2C(c2ccncc2)c2c(c(=O)oc4ccccc24)O3)cc1 (stereo not drawn) | 45.1 | – | – | – |
| COc1ccc(Nc2ncnc3c2C(c2ccc(OC)c(OC)c2)c2c(ccc4ccccc24)O3)cc1 (stereo not drawn) | 39.4 | – | – | – |
| COc1ccc(Nc2ncnc3c2C(c2ccc(Br)cc2)c2c(n[nH]c2C)O3)cc1 (stereo not drawn) | 30.3 | – | – | – |
| COc1ccc(Nc2ncnc3c2C(c2ccc(Br)cc2)C2=C(CCCC2=O)O3)cc1 (stereo not drawn) | 67 | 58 | 33.5 | 23.1 |
| COc1ccc(Nc2ncnc3c2C(c2cccc(C)c2)c2c(n[nH]c2C)O3)cc1 (stereo not drawn) | 43.6 | – | – | – |
| COc1ccc(Nc2ncnc3c2C(c2cccc(Cl)c2)C2=C(CCCC2=O)O3)cc1 (stereo not drawn) | 70.2 | 52 | 34.6 | 29.2 |
| COc1ccc(Nc2ncnc3c2C(c2ccc(Br)cc2)c2c(ccc4ccccc24)O3)cc1 (stereo not drawn) | 16.5 | – | – | – |
| COc1ccc(Nc2ncnc3c2C(c2ccc(F)cc2)c2c(c(=O)oc4ccccc24)O3)cc1 (stereo not drawn) | 70.2 | 50 | 35.1 | 24.5 |
| COc1ccc(Nc2ncnc3c2C(c2ccc(O)c(O)c2)c2c(n[nH]c2C)O3)cc1 (stereo not drawn) | 60.6 | 68 | 31.6 | 23.5 |
| COc1ccc(Nc2ncnc3c2C(c2ccccc2)c2c(c(=O)oc4ccccc24)O3)cc1 (stereo not drawn) | 72.8 | 40 | 36.4 | 25.1 |
| O=c1cc(-c2ccc(O)cc2)oc2cc(O)cc(O)c12 [APIGENIN] | – | 10.2 | – | – |
| COc1ccc(Nc2ncnc3c2C(c2ccc(Cl)cc2)c2c(ccc4ccccc24)O3)cc1 (stereo not drawn) | 17.2 | – | – | – |
| COc1ccc(Nc2ncnc3c2C(c2ccc([N+](=O)[O-])cc2)c2c(n[nH]c2C)O3)cc1 (stereo not drawn) | 25.7 | – | – | – |
| COc1ccc(Nc2ncnc3c2C(c2ccc(O)c(O)c2)c2c(ccc4ccccc24)O3)cc1 (stereo not drawn) | 37.2 | – | – | – |
| COc1ccc(Nc2ncnc3c2C(c2ccc(Br)cc2)c2ccc4ccccc4c2O3)cc1 (stereo not drawn) | 15.5 | – | – | – |
| COc1ccc(Nc2ncnc3c2C(c2ccccc2)c2c(n[nH]c2C)O3)cc1 (stereo not drawn) | 38.1 | – | – | – |
| COc1ccc(Nc2ncnc3c2C(c2ccc(Cl)cc2)c2c(c(=O)oc4ccccc24)O3)cc1 (stereo not drawn) | 67.2 | 56 | 33.5 | 21.3 |

| SMILES | inhibition at 100 µM [1] [%] | IC50 [2] [µM] | inhibition at 10 µM [3] [%] | inhibition at 1 µM [4] [%] |
| --- | --- | --- | --- | --- |
| COc1ccc(Nc2ncnc3c2C(c2cccc([N+](=O)[O-])c2)c2c(c(=O)oc4ccccc24)O3)cc1 (stereo not drawn) | 63.6 | 65 | 31.5 | 20.2 |
| COc1ccc(Nc2ncnc3c2C(c2ccc([N+](=O)[O-])cc2)c2c(ccc4ccccc24)O3)cc1 (stereo not drawn) | 11 | – | – | – |
| COc1ccc(Nc2ncnc3c2C(c2ccc(O)c(O)c2)c2c(c(=O)oc4ccccc24)O3)cc1 (stereo not drawn) | 90.4 | 18 | 45.9 | 35 |
| COc1ccc(Nc2ncnc3c2C(c2cccc([N+](=O)[O-])c2)C2=C(CCCC2=O)O3)cc1 (stereo not drawn) | 64.2 | 60 | 32.7 | 21.9 |
| COc1ccc(Nc2ncnc3c2C(c2cc(OC)c(OC)c(OC)c2)c2c(c(=O)oc4ccccc24)O3)cc1 (stereo not drawn) | 74.5 | 42 | 37.2 | 26.2 |
| COc1ccc(Nc2ncnc3c2C(c2ccc(Br)cc2)c2c(c(=O)oc4ccccc24)O3)cc1 (stereo not drawn) | 65.8 | 60 | 32.4 | 22.2 |
| COc1ccc(Nc2ncnc3c2C(c2ccc(OC)c(OC)c2)c2ccc4ccccc4c2O3)cc1 (stereo not drawn) | 39.7 | – | – | – |
| COc1ccc(Nc2ncnc3c2C(c2ccc(OC)cc2)c2c(ccc4ccccc24)O3)cc1 (stereo not drawn) | 32.6 | – | – | – |
| COc1ccc(Nc2ncnc3c2C(c2ccc(F)cc2)c2c(n[nH]c2C)O3)cc1 (stereo not drawn) | 35.7 | – | – | – |
| COc1ccc(Nc2ncnc3c2C(c2ccc(Cl)cc2)c2ccc4ccccc4c2O3)cc1 (stereo not drawn) | 16.7 | – | – | – |
| COc1ccc(Nc2ncnc3c2C(c2ccccc2OC)c2c(ccc4ccccc24)O3)cc1 (stereo not drawn) | 30.1 | – | – | – |
| COc1ccc(Nc2ncnc3c2C(c2cc4ccccc4[nH]2)c2c(c(=O)oc4ccccc24)O3)cc1 (stereo not drawn) | 18.4 | – | – | – |
| COc1ccc(Nc2ncnc3c2C(c2ccc(OC)cc2)c2ccc4ccccc4c2O3)cc1 (stereo not drawn) | 31.1 | – | – | – |
| COc1ccc(Nc2ncnc3c2C(c2ccccc2)c2c(ccc4ccccc24)O3)cc1 (stereo not drawn) | 20.2 | – | – | – |
| COc1ccc(Nc2ncnc3c2C(c2ccccc2)c2ccc4ccccc4c2O3)cc1 (stereo not drawn) | 20.5 | – | – | – |
| COc1ccc(Nc2ncnc3c2C(c2cccc4ccccc24)c2c(c(=O)oc4ccccc24)O3)cc1 (stereo not drawn) | 10 | – | – | – |
| COc1ccc(Nc2ncnc3c2C(c2cccc(C)c2)c2c(ccc4ccccc24)O3)cc1 (stereo not drawn) | 22.6 | – | – | – |
| COc1ccc(Nc2ncnc3c2C(c2cc(OC)c(OC)c(OC)c2)c2c(ccc4ccccc24)O3)cc1 (stereo not drawn) | 25.8 | – | – | – |
| COc1ccc(Nc2ncnc3c2C(c2ccc(F)cc2)c2c(ccc4ccccc24)O3)cc1 (stereo not drawn) | 19.6 | – | – | – |
| COc1ccc(Nc2ncnc3c2C(c2ccc(OC)cc2)c2c(n[nH]c2C)O3)cc1 (stereo not drawn) | 58.4 | – | 29.3 | 20.1 |
| COc1ccc(Nc2ncnc3c2C(c2ccc([N+](=O)[O-])cc2)c2ccc4ccccc4c2O3)cc1 (stereo not drawn) | 10.5 | – | – | – |
| COc1ccc(Nc2ncnc3c2C(c2cc(OC)c(OC)c(OC)c2)c2ccc4ccccc4c2O3)cc1 (stereo not drawn) | 25.2 | – | – | – |
| COc1ccc(Nc2ncnc3c2C(c2ccc(F)cc2)c2ccc4ccccc4c2O3)cc1 (stereo not drawn) | 19 | – | – | – |
| COc1ccc(Nc2ncnc3c2C(c2cccc(Cl)c2)c2c(ccc4ccccc24)O3)cc1 (stereo not drawn) | 17.6 | – | – | – |
| COc1ccc(Nc2ncnc3c2C(c2ccc(O)cc2)c2c(n[nH]c2C)O3)cc1 (stereo not drawn) | 52.1 | – | – | – |

| SMILES | inhibition at 100 µM [1] [%] | IC50 [2] [µM] | inhibition at 10 µM [3] [%] | inhibition at 1 µM [4] [%] |
| --- | --- | --- | --- | --- |
| COc1ccc(Nc2ncnc3c2C(c2cccc4ccccc24)c2c(n[nH]c2C)O3)cc1 (stereo not drawn) | 10.1 | – | – | – |
| COc1ccc(Nc2ncnc3c2C(c2cccc([N+](=O)[O-])c2)c2ccc4ccccc4c2O3)cc1 (stereo not drawn) | 13 | – | – | – |
| COc1ccc(Nc2ncnc3c2C(c2ccc(Cl)cc2)c2c(n[nH]c2C)O3)cc1 (stereo not drawn) | 32.2 | – | – | – |
| COc1ccc(Nc2ncnc3c2C(c2cc4ccccc4[nH]2)c2c(n[nH]c2C)O3)cc1 (stereo not drawn) | 11.2 | – | – | – |
| COc1ccc(Nc2ncnc3c2C(c2cccc([N+](=O)[O-])c2)c2c(ccc4ccccc24)O3)cc1 (stereo not drawn) | 13.3 | – | – | – |
| COc1ccc(Nc2ncnc3c2C(c2ccc(O)cc2)c2c(ccc4ccccc24)O3)cc1 (stereo not drawn) | 29.1 | – | – | – |
| COc1ccc(Nc2ncnc3c2C(c2cccc(Cl)c2)c2ccc4ccccc4c2O3)cc1 (stereo not drawn) | 17.1 | – | – | – |
| COc1ccc(Nc2ncnc3c2C(c2cccs2)c2c(n[nH]c2C)O3)cc1 (stereo not drawn) | 19.8 | – | – | – |
| COc1ccc(Nc2ncnc3c2C(c2ccc(O)c(OC)c2)c2ccc4ccccc4c2O3)cc1 (stereo not drawn) | 33.2 | – | – | – |
| COc1ccc(Nc2ncnc3c2C(c2cccc(O)c2)c2c(ccc4ccccc24)O3)cc1 (stereo not drawn) | 28.1 | – | – | – |
| COc1ccc(Nc2ncnc3c2C(c2ccc(O)cc2)c2ccc4ccccc4c2O3)cc1 (stereo not drawn) | 28.6 | – | – | – |
| COc1ccc(Nc2ncnc3c2C(c2cccc(O)c2)c2c(n[nH]c2C)O3)cc1 (stereo not drawn) | 50.1 | – | – | – |
| COc1ccc(Nc2ncnc3c2C(c2cccc([N+](=O)[O-])c2)c2c(n[nH]c2C)O3)cc1 (stereo not drawn) | 28.9 | – | – | – |
| COc1ccc(Nc2ncnc3c2C(c2cccc(C)c2)c2ccc4ccccc4c2O3)cc1 (stereo not drawn) | 21.8 | – | – | – |
| COc1ccc(Nc2ncnc3c2C(c2ccc(O)c(OC)c2)c2c(ccc4ccccc24)O3)cc1 (stereo not drawn) | 33.8 | – | – | – |
| COc1ccc(Nc2ncnc3c2C(c2cccc4ccccc24)C2=C(CCCC2=O)O3)cc1 (stereo not drawn) | 12.1 | – | – | – |
| COc1ccc(Nc2ncnc3c2C(c2cccs2)c2c(c(=O)oc4ccccc24)O3)cc1 (stereo not drawn) | 58.8 | – | – | – |
| COc1ccc(Nc2ncnc3c2C(c2cccc(O)c2)c2ccc4ccccc4c2O3)cc1 (stereo not drawn) | 27.4 | – | – | – |
| COc1ccc(Nc2ncnc3c2C(c2cccs2)C2=C(CCCC2=O)O3)cc1 (stereo not drawn) | 59.1 | – | – | – |
| COc1ccc(Nc2ncnc3c2C(c2ccccc2OC)c2c(n[nH]c2C)O3)cc1 (stereo not drawn) | 55.2 | – | – | – |
| COc1ccc(Nc2ncnc3c2C(c2ccc(O)c(OC)c2)c2c(n[nH]c2C)O3)cc1 (stereo not drawn) | 65.5 | 60 | 32.5 | – |
| COc1ccc(Nc2ncnc3c2C(c2cc4ccccc4[nH]2)C2=C(CCCC2=O)O3)cc1 (stereo not drawn) | 19.3 | – | – | – |
| COc1ccc(Nc2ncnc3c2C(c2ccncc2)C2=C(CCCC2=O)O3)cc1 (stereo not drawn) | 46 | – | – | – |
| COc1ccc(Nc2ncnc3c2C(c2ccccc2OC)c2ccc4ccccc4c2O3)cc1 (stereo not drawn) | 30 | – | – | – |
